Two compounds from patent US6828450B2, “Triptycene analogs” (Kansas State University Research Foundation, priority 2000, dated 2004) can be followed below.

The test system of assay [1] is HL-60-R8 cells. The experiment in a line: HL-60-R8 (MDR) cell viability assay (MTS:PMS). The settings on record: read-out: IC50, decrease of HL-60-R8 cell viability. The format is cell-based, human. From the text: The MDR HL-60-RV and HL-60-R8 cells were developed in Melvin S. Center's laboratory (Kansas State University) and similarly maintained in RPMI 1640 medium in the absence of drugs (Marsh W, et al, Cancer Res 46: 4053-4057, 1986; McGrath T et al, and Center M S: Biochem Biophys Res Commun 145: 1171-1176, 1987; Marsh W and Center M S: Cancer Res 47: 5080-5086, 1987; McGrath T, et al, Biochem Pharmacol 38: 3611-3619, 1989; Marquardt D, et al, Cancer Res 50: 1426-1430, 1990; Marquardt D and Center M S: J Natl Cancer Inst 83: 1089-1109, 1991; Krishnamachary N and Center M S; Cancer Res 53: 3658-3661, 1993). Every 4 weeks, these HL-60-RV and HL-60-R8 sublines were exposed to 41 nM DAU for 48 h to stabilize their MDR phenotype. This concentration of DAU, which is not cytotoxic to MDR HL-60 sublines, was removed from the culture medium at least 48 h before experimentation. […] RFs were determined by dividing the IC50 of the MDR cells by that of the sensitive WT parent cell line.

The test system of assay [2] is L1210 cells. As to the kind of experiment: Protein synthesis (3H-leucine incorporation) in L1210 cells. The format is cell-based, murine. The protocol: FIG. 17. Comparison of the concentration-dependent inhibitions of protein synthesis by the TT analog TT2 (●) and DAU (∘) in L1210 cells in vitro. […] Protein synthesis in vehicle-treated control cells was 13,812±1,070 cpm (100±8%; striped area). The blank value (2,436±298 cpm) for cells incubated and pulse-labeled at 2° C. with 2.5 μCi of ^3H-leucine has been substracted from the results.
Except when otherwise specified, the cells were incubated at 37° C. for 90 min in the presence or absence of drugs and then pulse-labeled for an additional 30 min with 1 μCi of [methyl-^3H]thymidine (50 Ci/mmol; Amersham Corp., Arlington Heights, Ill.) to estimate the rate of DNA synthesis. […] After drying the filters, the radioactivity bound to the acid-precipitable material was determined by liquid scintillation counting (LSC) in 10 ml of Bio-Safe NA (Researeh Products International Corp., Mount Prospect, Ill.).

The test system of assay [3] is L1210 cells. The experiment in a line: Mitotic index of L1210 cells. The settings on record: 24 h; for decrease of the % of mitotic cells: DAU 0.256-1.6 μM, highest concentrations of TT2 tested. The assay is classed as cell-based, murine. The protocol: FIG. 18. Effects of the novel TT analog TT2 and DAU on the mitotic index of L1210 cells in vitro. […] Cells (10^6/0.5 ml of RPMI 1640 medium) were incubated in triplicate for 24 h at 37° C. in the presence or absence (control) of 0.256, 0.64, 1.6 and 4 μM TT2, 0.256, 0.64 and 1.6 μM DAU, 0.2 μM VCR or 1 μM H10. After fixation with MeOH:acetic acid (3:1) and staining with 0.1% crystal violet, about 500 cells/slide were scored for mitotic figures and the mitotic index was expressed as the % of mitotic cells in drug-treated cultures divided by the % of mitotic cells in non-treated controls. The mean % of mitotic cells in control at 24 h was 1.86±0.43%.
L1210 cells (about 1×10^6/0.5 ml of FCS-containing RPMI 1640 medium) were incubated in triplicate for 24 h at 37° C. in the presence or absence of TTs or known antimitotic drugs, and collected by centrifugation at 200×g for 10 min to determine their mitotic index. For hypotonic treatment, cells were resuspended in 1 ml of 75 mM KCl for 20 min at 4° C. After fixation in 1 ml of MeOH:acetic acid (3:1), the final cell pellets were collected by centrifugation, resuspended in 75 μl of MeOH:acetic acid (3:1), dispensed onto glass slides, air dried, and stained by spreading 40 μl of 0.1% crystal violet under a coverslip. The % of cells in mitosis was determined microscopically by counting 500 cells/slides. The mitotic index was calculated as the % of mitotic cells in drug-treated cultures divided by the % of mitotic cells in non-treated controls.

Where “and” joins values, the source holds several entries; their conditions need not be identical. Equal entries are not always repeated. Where two headings read alike, the source gives them in different places.

Regarding `COC1=CC(=O)C2=C(C1=O)C1C3=C(C(=O)C=CC3=O)C2c2ccccc21` (stereo not drawn) [TT2, 2-Methoxy-9,10-dihydro-9,10-[1′,2′]benzenoanthracene-1,4,5,8-tetraone], the half-maximal inhibitory concentration (IC50) in assay [1] (day 2) was 1.6 µM; in assay [1] (day 4), 0.35 µM; in assay [2] (3 h drug + 1 h pulse-labeling, read-out: IC50, inhibition of protein synthesis in L1210 cells) it was 6 µM and ~6 µM. Besides, the “effect on the mitotic index” value in assay [3] is recorded as “does not increase”. In assay [3], the “decrease of the % of mitotic cells” value is 38-48%.

For `COc1cccc2c1C(=O)c1c(O)c3c(c(O)c1C2=O)C[C@@](O)(C(C)=O)C[C@@H]3O[C@H]1C[C@H](N)[C@H](O)[C@H](C)O1` [DAU, daunomycin, reference compound], the IC50 in assay [1] (Homo sapiens, 48 h) stood at 2.5 µM; in assay [1] (Homo sapiens, 96 h), 0.38 µM. Further, the “times DAU inhibits protein synthesis more effectively than TT2” value in assay [2] (L1210) is listed as roughly 3 times. In addition, the “decrease of the % of mitotic cells” value in assay [3] is listed as 74-91%.

One may read the IC50 as the midpoint of a concentration-inhibition curve.
